System: CCl4 induced hepatic injury
Experiment: Hepatoprotective potential against CCl4 induced hepatic injury (prophylactic)
Type: in vivo, Rodents
Conditions: for ALP % protection / Albumin % protection / Bilirubin % protection / GOT % protection / GPT % protection / GSH % protection / LP % protection / TG % protection: value within parenthesis
Description: The compound has been bioevaluated for hepatoprotective/antihepatotoxic activity by using a comprehensive study design annexed herewith as Annexure-2. The parameters studied during the bioevaluation to establish the bioefficacy and optimum dose were preferred using the kits (Clonital, Italy and Accurex Biomedical Pvt. Ltd Thane). The list of the parameters is given in Annexure-2 appended herewith. The dose response graphs with respect to different parameters in comparison with the standard drug with silymarin and glycyrrhizin are given in Annexure-3 appended herewith.
Hepatoprotective activity (H) was calculated by the following equation : H = [1-(TC-V/VC-V)]x100 [formula]
Where TC, VC, and V are drug + toxin, vehicle + toxin and vehicle treated groups of animals respectively. Table-1: Hepatoprotective potential of Acteoside against CCl4 induced hepatic injury in Rodents Prophylactic).

[1] = 0.625 mg/kg p.o. + CCl4 1 ml/kg p.o., prophylactic, mean ± SE of six animals
[2] = 0.625 mg/kg p.o. + CCl4 1 ml/kg p.o., prophylactic
[3] = 1.25 mg/kg p.o. + CCl4 1 ml/kg p.o., prophylactic, mean ± SE of six animals
[4] = 1.25 mg/kg p.o. + CCl4 1 ml/kg p.o., prophylactic
[5] = 2.5 mg/kg p.o. + CCl4 1 ml/kg p.o., prophylactic, mean ± SE of six animals
[6] = 2.5 mg/kg p.o. + CCl4 1 ml/kg p.o., prophylactic
[7] = 5.0 mg/kg p.o. + CCl4 1 ml/kg p.o., prophylactic, mean ± SE of six animals
[8] = 5.0 mg/kg p.o. + CCl4 1 ml/kg p.o., prophylactic
[9] = Acteoside only (Per-se), 5 mg/kg p.o., no CCl4, mean ± SE of six animals
[10] = 100 mg/kg p.o. + CCl4 1 ml/kg p.o., prophylactic, mean ± SE of six animals
[11] = 100 mg/kg p.o. + CCl4 1 ml/kg p.o., prophylactic, mean ± SE of six animals, unit = µ mole pyruvate/min/L
[12] = 100 mg/kg p.o. + CCl4 1 ml/kg p.o., prophylactic

**Q.** Which “Hepatic parameters GSH (glutathione)” value [1] does the source give for `C[C@@H]1O[C@@H](O[C@@H]2[C@@H](O)[C@H](OCCc3ccc(O)c(O)c3)O[C@H](CO)[C@H]2OC(=O)/C=C/c2ccc(O)c(O)c2)[C@H](O)[C@H](O)[C@H]1O` [Acteoside, β-(3',4'-dihydroxyphenyl) ethyl -O-α-L-rhamnopyranosyl (1→3)-β-D-(4-O-caffeoyl)-glucopyranoside] here?
**A.** 4.66±0.28 µ mole GSH/g liver

**Q.** And the “Hepatic parameters LP (lipid peroxidation)” value (“Hepatic parameters LP” below) [1]?
**A.** 61.08±3.39 n mole MDA/g liver

**Q.** And the “Serum parameter ALP” value [1]?
**A.** 66.80±3.53 µ mole of p-nitrophenol formed /min/L

**Q.** What about the “Serum parameter Albumin” value [1] of the same compound?
**A.** 3.06±0.07 g %

**Q.** What about the “Serum parameter Bilirubin” value [1] of the same compound?
**A.** 0.70±0.03 mg %

**Q.** And the “Serum parameter TG” value [1]?
**A.** 80.15±3.53 mg %

**Q.** And the ALP % protection [2]?
**A.** 21.48%

**Q.** What about the Albumin % protection [2] of the same compound?
**A.** 21.43%

**Q.** And the Bilirubin % protection [2]?
**A.** 12.24%

**Q.** And the GOT % protection [2]?
**A.** 36.64%

**Q.** What about the GPT % protection [2] of the same compound?
**A.** 39.44%

**Q.** And the GSH % protection [2]?
**A.** 27.86%

**Q.** What about the LP % protection [2] of the same compound?
**A.** 43.53%

**Q.** What about the TG % protection [2] of the same compound?
**A.** 17.63%

**Q.** What about the “Hepatic parameters GSH (glutathione)” value [3] of the same compound?
**A.** 5.93±0.32 µ mole GSH/g liver

**Q.** And the “Hepatic parameters LP” value [3]?
**A.** 52.61±2.25 n mole MDA/g liver

**Q.** And the “Serum parameter ALP” value [3]?
**A.** 59.10±3.09 µ mole of p-nitrophenol formed /min/L

**Q.** And the “Serum parameter Albumin” value [3]?
**A.** 3.25±0.14 g %

**Q.** And the “Serum parameter Bilirubin” value [3]?
**A.** 0.59±0.03 mg %

**Q.** What about the “Serum parameter TG” value [3] of the same compound?
**A.** 74.38±3.78 mg %

**Q.** What about the ALP % protection [4] of the same compound?
**A.** 38.72%

**Q.** And the Albumin % protection [4]?
**A.** 35.00%

**Q.** And the Bilirubin % protection [4]?
**A.** 34.69%

**Q.** And the GOT % protection [4]?
**A.** 55.43%

**Q.** What about the GPT % protection [4] of the same compound?
**A.** 51.01%

**Q.** And the GSH % protection [4]?
**A.** 52.96%

**Q.** What about the LP % protection [4] of the same compound?
**A.** 59.38%

**Q.** And the TG % protection [4]?
**A.** 27.13%

**Q.** And the “Hepatic parameters GSH (glutathione)” value [5]?
**A.** 6.72±0.28 µ mole GSH/g liver

**Q.** And the “Hepatic parameters LP” value [5]?
**A.** 45.46±2.79 n mole MDA/g liver

**Q.** And the “Serum parameter ALP” value [5]?
**A.** 51.20±1.42 µ mole of p-nitrophenol formed /min/L

**Q.** What about the “Serum parameter Albumin” value [5] of the same compound?
**A.** 3.55±0.22 g %

**Q.** What about the “Serum parameter Bilirubin” value [5] of the same compound?
**A.** 0.50±0.03 mg %

**Q.** What about the “Serum parameter TG” value [5] of the same compound?
**A.** 59.85±1.88 mg %

**Q.** What about the ALP % protection [6] of the same compound?
**A.** 56.40%

**Q.** And the Albumin % protection [6]?
**A.** 56.43%

**Q.** And the Bilirubin % protection [6]?
**A.** 53.06%

**Q.** And the GOT % protection [6]?
**A.** 58.92%

**Q.** And the GPT % protection [6]?
**A.** 59.79%

**Q.** What about the GSH % protection [6] of the same compound?
**A.** 68.57%

**Q.** And the LP % protection [6]?
**A.** 72.76%

**Q.** What about the TG % protection [6] of the same compound?
**A.** 51.06%

**Q.** And the “Hepatic parameters GSH (glutathione)” value [7]?
**A.** 7.02±0.46 µ mole GSH/g liver

**Q.** What about the “Hepatic parameters LP” value [7] of the same compound?
**A.** 44.22±1.66 n mole MDA/g liver

**Q.** And the “Serum parameter ALP” value [7]?
**A.** 46.37±1.89 µ mole of p-nitrophenol formed /min/L

**Q.** And the “Serum parameter Albumin” value [7]?
**A.** 3.91±0.12 g %

**Q.** And the “Serum parameter Bilirubin” value [7]?
**A.** 0.42±0.02 mg %

**Q.** And the “Serum parameter TG” value [7]?
**A.** 49.31±1.47 mg %

**Q.** And the ALP % protection [8]?
**A.** 67.21%

**Q.** And the Albumin % protection [8]?
**A.** 32.14%

**Q.** And the Bilirubin % protection [8]?
**A.** 69.38%

**Q.** What about the GOT % protection [8] of the same compound?
**A.** 70.49%

**Q.** What about the GPT % protection [8] of the same compound?
**A.** 66.08%

**Q.** What about the GSH % protection [8] of the same compound?
**A.** 74.50%

**Q.** What about the LP % protection [8] of the same compound?
**A.** 75.07%

**Q.** What about the TG % protection [8] of the same compound?
**A.** 68.42%

**Q.** What about the “Hepatic parameters GSH (glutathione)” value [9] of the same compound?
**A.** 8.33±0.33 µ mole GSH/g liver

**Q.** And the “Hepatic parameters LP” value [9]?
**A.** 30.52±1.38 n mole MDA/g liver

**Q.** What about the “Serum parameter ALP” value [9] of the same compound?
**A.** 31.87±2.15 µ mole of p-nitrophenol formed /min/L

**Q.** And the “Serum parameter Albumin” value [9]?
**A.** 4.66±0.18 g %

**Q.** What about the “Serum parameter Bilirubin” value [9] of the same compound?
**A.** 0.27±0.02 mg %

**Q.** And the “Serum parameter TG” value [9]?
**A.** 31.10±2.39 mg %

**Q.** And the “Serum parameter GOT” value (Acteoside only (Per-se), 5 mg/kg p.o., no CCl4, mean ± SE of six animals, unit = µ mole pyruvate/min/L)?
**A.** 94.71±5.29 Units

**Q.** And the overall percent protection (with reference to all the parameters studied, CCl4, dose of 1.25 mg upto 5 mg/kg)?
**A.** 40-80%

**Q.** Which “Hepatic parameters GSH (glutathione)” value [10] does the source give for `CC1(C)[C@@H](O[C@H]2O[C@H](C(=O)O)[C@@H](O)[C@H](O)[C@H]2O[C@@H]2O[C@H](C(=O)O)[C@@H](O)[C@H](O)[C@H]2O)CC[C@]2(C)[C@H]3C(=O)C=C4[C@@H]5C[C@@](C)(C(=O)O)CC[C@]5(C)CC[C@@]4(C)[C@]3(C)CC[C@@H]12` [Glycyrrhizin, reference compound] here?
**A.** 5.96 ±0.26 µ mole GSH/g liver

**Q.** And the “Hepatic parameters LP” value [10]?
**A.** 54.37 ± 4.32 n mole MDA/g liver

**Q.** What about the “Serum parameter ALP” value [10] of the same compound?
**A.** 55.63 ± 3.52 µ mole of p-nitrophenol formed /min/L

**Q.** What about the “Serum parameter Albumin” value [10] of the same compound?
**A.** 3.30 ± 0.12 g %

**Q.** And the “Serum parameter Bilirubin” value [10]?
**A.** 0.55 ± 0.04 mg %

**Q.** What about the “Serum parameter TG” value [10] of the same compound?
**A.** 65.31 ± 3.69 mg %

**Q.** What about the “Serum parameter GOT” value [11] of the same compound?
**A.** 494.27 ± 36.28 Units

**Q.** And the “Serum parameter GPT” value [11]?
**A.** 746.87 ± 49.77 Units

**Q.** What about the ALP % protection [12] of the same compound?
**A.** 46.48%

**Q.** And the Albumin % protection [12]?
**A.** 38.57%

**Q.** And the Bilirubin % protection [12]?
**A.** 42.85%

**Q.** What about the GOT % protection [12] of the same compound?
**A.** 56.44%

**Q.** What about the GPT % protection [12] of the same compound?
**A.** 53.87%

**Q.** And the GSH % protection [12]?
**A.** 53.55%

**Q.** What about the LP % protection [12] of the same compound?
**A.** 56.08%

**Q.** And the TG % protection [12]?
**A.** 42.07%
